System: castrated male Sprague Dawley rats
Assay: Ventral Prostate and Levator ani Weight in vivo Assay (agonist, stimulation of tissue weight)
Design: species or system rat; key: A compound was designated as agonist active if it produced greater than or equal to 20% stimulation of levator ani at 30 mg/kg; they are listed herein as “inactive” as they did not meet the specified criteria defined above; A designation of “toxic” indicates that the compound exhibited toxicity in the rats tested
Details: mature castrated rats, test compound oral gavage up to 30 mg/kg once daily for 14 days, vehicle = 0%, testosterone propionate = 100%; for % levator ani Stimulation: levator ani wet weight; for % Prostate Stimulation: ventral prostate wet weight
Protocol: Ventral Prostate and Levator ani Weight in vivo Assay
Mature (150 to 200 g) castrated male Sprague Dawley rats (Charles River) were treated once daily for 14 days with test compound (usually administered by oral gavage at up to the desired dosage, up to 30 mg/kg in a volume of 1 mL, in 30% cyclodextrin or 0.5% methylcellulose vehicle), or with testosterone propionate (administered subcutaneously by injection at the nape of the neck at 5 mg/kg, in a volume of 0.1 mL in sesame oil), or with vehicle (1 mL of 30% cyclodextrin or 0.5% methylcellulose, given orally). On the fifteenth day, the rats were euthanized by asphyxiation in carbon dioxide. Ventral prostates and levator ani muscles were removed and their wet weights determined.
Test compound activity was determined as the percent stimulation of tissue weight, with the vehicle-treated control group set to zero percent and the testosterone alone-treated control group set to 100%. A compound was designated as agonist active if it produced greater than or equal to 20% stimulation of levator ani at 30 mg/kg.
Representative compounds of the present invention were tested according to the procedure described, with results as listed in Table 10 below.

| SMILES | % levator ani Stimulation | % Prostate Stimulation |
| --- | --- | --- |
| CC1(C(=O)NCc2ccc(S(C)(=O)=O)cc2)CC(C(F)(F)F)=NN1 (stereo not drawn) [Compound 27, 3-Methyl-5-trifluoromethyl-3,4-dihydro-2H-pyrazole-3-carboxylic acid 4-methanesulfonyl-benzylamide] | inactive | inactive |
| CC1(C(=O)Nc2ccc(C#N)c(C(F)(F)F)c2)CC(C(F)(F)C(F)(F)F)=NN1 (stereo not drawn) [Compound 98, 3-Methyl-5-pentafluoroethyl-3,4-dihydro-2H-pyrazole-3-carboxylic acid (4-cyano-3-trifluoromethyl-phenyl)-amide] | active | active |
| CC1CC(C(=O)Nc2ccc(C#N)c(C(F)(F)F)c2)(C(F)(F)F)N=N1 (stereo not drawn) [Compound 114, 5-Methyl-3-trifluoromethyl-4,5-dihydro-3H-pyrazole-3-carboxylic acid (4-cyano-3-trifluoromethyl-phenyl)-amide] | inactive | inactive |
| CC1(C(=O)N(C(=O)C(F)(F)F)c2ccc(C#N)c(C(F)(F)F)c2)CC(C(F)(F)F)=NN1 (stereo not drawn) [Compound 115, 3-Methyl-5-trifluoromethyl-3,4-dihydro-2H-pyrazole-3-carboxylic acid (4-cyano-3-trifluoromethyl-phenyl)-(2,2,2-trifluoro-acetyl)-amide] | inactive | inactive |
| CC1(C(=O)Nc2ccc(C#N)c(C(F)(F)F)c2)CC(C2CCCC2)=NN1 (stereo not drawn) [compound 78] | inactive | inactive |
| CSCCC1=NNC(C)(C(=O)Nc2ccc(C#N)c(C(F)(F)F)c2)C1 (stereo not drawn) [compound 79] | inactive | inactive |
